The values that follow come from US8158589B2, “Peptides with the capacity to bind to transforming growth factor β1 (TGF-β1)” (Proyecto Biomedicine Cima, S.L., priority 2003, dated 2012).

Test [1] has as its target T1, TGF-β1 (Mus musculus, UniProt P04202).
T1 construct: from tissue; host or cells: liver of Balb/C mice (CCl4 model); lung of C57BL/6 mice (bleomycin model)
The experiment in a line: Model of acute liver damage induced by CCl4, type I collagen mRNA by real time PCR. Also on record: key to % Inhibition of type I collagen mRNA induction (in vivo TGF-β1 biological activity): Neg: negative. In kind it is in vivo, mice. To be noted: for % Inhibition of type I collagen mRNA induction (in vivo TGF-β1 biological activity): Balb/C mice, oral CCl4, 50 μg of peptide every 24 h, sacrifice after 72 hours; for inhibition of the biological activity of TGF-β1 in vivo (in words): acute liver damage, type I collagen mRNA. As for the experimental part: Acute liver damage generates a cascade of effects and physiological responses, including elevations in the concentrations of TGF-β1. This elevation is responsible for the expression of the type I collagen gene, among others. In this model of acute liver damage, female Balb/C mice weighing 25 to 30 g, were orally administered a dose of 2 μl of CCl4 (per gram of body weight) dissolved in an equivalent volume of corn oil (volumetric ratio of 1:1). The control group received an equivalent volume of corn oil only, and the treated groups received (following the single oral administration of CCl4 in corn oil) 50 μg of peptide in 500 μl of 1% physiological saline solution in DMSO (dimethyl sulfoxide) every 24 h. After 72 hours all animals were sacrificed, and the liver samples were processed. To evaluate mRNA expression, liver tissue was frozen in liquid nitrogen and stored at −80° C. until further use. Other liver tissue samples were stored in OCT® or Tissue-Tek® (Sakura Finetek B.V.) and processed in the same way as the samples used for mRNA studies. Other liver samples were fixed in 10% buffered formalin solution, embedded in paraffin and processed for their histological evaluation. The amount of mRNA encoding type I collagen was quantified in all groups using a quantitative polymerase chain reaction (PCR) technique. […] The capacity of the testing peptides to block the acute damage, as assessed by measuring the levels of induced type I collagen mRNA was quantified by real time PCR. […] The peptides tested were obtained by conventional solid peptide synthesis procedures (Merrifield R B. J Am Chem Soc 1963; 85:2149-2154; Atherton E et al. J Chem Soc Perkin Trans 1981; 1:538-546).
Background: In qPCR the cycle at which signal appears reflects the starting amount.

Test [2] deals with T2, TGF-β1 (Homo sapiens, UniProt P01137). The experiment in a line: Biopanning of phage-displayed 15-aa peptide library on biotinylated TGF-β1, number of colonies per sequence. The class given is binding. The arrangement: purchased Roche; host or cells: added to Mv-1-Lu (CCL-64) mink lung epithelial cells. To be noted: clones carrying the sequence among 108 colonies after the last biopanning cycle; approximate indication of affinity for TGF-β1. An excerpt:
These libraries comprise a plurality of filamentous bacteriophages (M13), each one containing a peptide genetically fused to a protein of the virus envelope—in this case bound to the N-terminal end of envelope protein pIII (FIG. 1). […] In the phage libraries, the sequence encoding the peptide originates from a sequence degenerated in each one of the 15 positions with the 20 natural amino acids, thus allowing the presentation of 1.1×10^12 possible sequences of 15 amino acids in different phages. The physical ratio, 1:1, between the peptide sequence and the DNA encoding it within the bacteriophage allows the selection (from a broad range of variants) of those sequences that specifically bind to TGF-β1. This process is carried out via an in vitro selection protocol known as “biopanning”.
This technique involves incubating a set of phages representative (to practical effects) of all the 15-aa variants, in a plate blocked with streptavidin (10 μg/ml in 0.1 M NaHCO3, during 2 h at room temperature) to which biotinylated TGF-β1 is added. […] TGF-β1 contacts the peptides carried by the phages at a concentration of […]. After about 12 hours incubation, unbound phages are eliminated by 5 washings with PBS/Tween (phosphate buffered saline/polyoxyalkylene derivatives of sorbitan fatty acid esters). […] The eluted phages are then amplified by infection in a bacterial strain (E. coli). The process is repeated three cycles so that an enrichment in the content of phages which specifically bind, and with high affinity, to TGF-β1 is achieved (FIG. 3). […] Thus, the phages selected in each cycle show more and more affinity for TGF-β1. At the end of the process, phages which have been selected for their affinity for TGF-β1, are sequenced by using primers, after isolation by tetracycline resistance of the genetically modified phages after infecting E. coli cells. […] The number of times which a sequence is repeated, corresponding to a 15 amino acids peptide carried by each clone, from the total of sequenced colonies is an indication of the degree of relative affinity of said 15 amino acids sequence for TGF-β1.
The selection of clones, obtained from the “biopanning”, was carried out by selection of the bacterial colonies infected with the phages in the presence of a bacterial antibiotic; the bacteria resistance is acquired by a tetracycline resistance gene encoded by the phage genome. Thus, only those colonies infected with bacteriophages are able to grow. This means that each colony contains the genome of only one phage coding for only one peptide presented in its surface.
A total number of 108 colonies of phage-infected bacteria were obtained from the last selection cycle of “biopanning”. The sequence of the regions coding for the peptides present in the pIII protein was carried out using primers identified with SEQ ID NO: 23. This table also reflects the number of colonies (clones) carrying said sequences.
The number of clones (colonies) of each sequence gives an approximate indication of the degree of affinity of the peptide for TGF-β1, that is, the more colonies the more binding affinity.

For test [3], the target named is T2, TGF-β1. The class given is cell-based. Also on record: purchased Roche; host or cells: added to Mv-1-Lu (CCL-64) mink lung epithelial cells. To be noted: Mv-1-Lu proliferation. The text has this:
The cell line Mv-1-Lu (CCL-64, […], Virginia, USA) derives from mink pulmonary epithelium, grows as a monolayer, and responds to the presence of TGF-β1 by decreasing its proliferation (FIG. 5). Thus, the peptide-mediated inhibition of this cytokine is able to restore cell growth and reflects the capacity of the different peptides to inhibit the biological activity of TGF-β1 in vitro. The peptides tested were obtained by peptide synthesis, in accordance to conventional procedures (Merrifield R B. J Am Chem Soc 1963; 85:2149-2154; Atherton E et al. J Chem Soc Perkin Trans 1981; 1:538-546).
The Mv-1-Lu cells are cultured to confluence in complete medium [RPMI-1640 supplemented with L-glutamine, sodium pyruvate, antibiotics and 10% fetal bovine serum (FBS)] at 37° C. and in 5% CO2 in 162 cm^2 bottles (Costar Corporation, CA, USA). Following trypsinization, the cells are cultured in 200 μl of complete medium in 96-well plates at an initial density of 5,000 cells/well at 37° C. and in 5% CO2 during 6 hours to ensure adhesion. Then, different concentrations of the peptides to be tested are added, starting from 200 μg/ml, and following 200 pg/ml of TGF-β1 (Roche) are added. After 12 hours of incubation 1 μCi of methyl-3H-thymidine (Amersham Life Science, Buckinghamshire, United Kingdom) is added per well in 25 μl of clean medium (RPMI-1640). The plate is incubated for 12 more hours under the same conditions. Finally, the cells are harvested (Filtermate 196 Harvester, Packard), transferring the tritiated thymidine, incorporated in the course of DNA synthesis, to plates (UniFilter-96 GF/C®, Perkin Elmer). Following the addition of scintillation fluid, the radioactivity was quantified using a scintillation counter (Top Count, Microplate Scintillation Counter, Packard). As positive and negative control, use was made of the incorporation of tritiated thymidine in the absence and presence of TGF-β1, respectively. The inhibition of TGF-β1 activity in this test was calculated based on the following formula: […]
The negative control represents the incorporation of tritiated thymidine in the presence of TGF-β1 but in the absence of peptide, whereas the positive control refers to the incorporation of tritiated thymidine in the absence of TGF-β1 and peptide. Thus, according to the capacity of the peptides to revert the cytokine repressor effect on Mv-1-Lu cell line proliferation, percentage of TGF-β1 biological activity inhibition by the peptides can be measured (Table 2).
Comparisons have been made of the activity of truncated peptides (derived from peptide sequence SEQ ID NO: 17) versus the complete sequence, in terms of the capacity to revert the suppressor effect of TGF-β1 upon proliferation of the Mv-1-Lu cell line. To this effect, and to determine the minimum sequence of peptide SEQ ID NO: 17 capable of inhibiting the biological activity of TGF-β1 in vitro, truncated versions of this peptide were synthesized, with truncation at the N-terminal end, C-terminal end or in both ends of the molecule. The peptides tested were obtained by peptide synthesis following conventional procedures (Merrifield R B. J Am Chem Soc 1963; 85:2149-2154; Atherton E et al. J Chem Soc Perkin Trans 1981; 1:538-546). Following the same methodology described in Example 2, the activity of truncated peptides versus the complete sequence of the peptide SEQ ID NO: 17 was quantified, in terms of a proliferation assay of the Mv-1-Lu cell line.

Ends that are not written are not given here.

T1 sequence (P04202 279-390 limits assumed): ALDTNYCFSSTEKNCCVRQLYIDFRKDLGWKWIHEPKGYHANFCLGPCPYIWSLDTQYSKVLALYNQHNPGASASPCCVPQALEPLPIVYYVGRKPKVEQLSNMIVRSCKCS
T2 sequence (P01137 279-390 limits assumed, species assumed): as the sequence (P04202 279-390 limits assumed) above, with S75A counted along it

Regarding MPLSRYWWLFSHRPR [SEQ ID NO: 18], the “% Inhibition of type I collagen mRNA induction (in vivo TGF-β1 biological activity)” value in test [1] was “Neg”. The No. colonies in test [2] is listed as 1. The “inhibition of the biological activity of TGF-β1 in vitro (in words)” value in test [3] was “only inhibitory activity”.

For PPYHRFWRGHRHAVQ [SEQ ID NO: 6], in test [1], the “% Inhibition of type I collagen mRNA induction (in vivo TGF-β1 biological activity)” value came out at 74.94 ± 25.3% and the “inhibition of the biological activity of TGF-β1 in vivo (in words)” value was “inhibitory capacity”. This sequence also showed a No. colonies in test [2] of 12. Moreover, the “inhibition of the biological activity of TGF-β1 in vitro (in words)” value in test [3] was “inhibitory capacity”.

Turning to RFFTRFPWHYHASRL [SEQ ID NO: 3], in test [1], the “% Inhibition of type I collagen mRNA induction (in vivo TGF-β1 biological activity)” value is 2.09% and the “inhibition of the biological activity of TGF-β1 in vivo (in words)” value is recorded as “much less active”. Further, the No. colonies in test [2] amounted to 41. Further, the “inhibition of the biological activity of TGF-β1 in vitro (in words)” value in test [3] is listed as “only inhibitory activity”.

RKWFLQHRRMPVSVL [SEQ ID NO: 13]: in test [1], the “% Inhibition of type I collagen mRNA induction (in vivo TGF-β1 biological activity)” value is recorded as 32.70% and the “inhibition of the biological activity of TGF-β1 in vivo (in words)” value is “inhibitory capacity”. The same sequence came in with a No. colonies in test [2] of 6. In addition, the “inhibition of the biological activity of TGF-β1 in vitro (in words)” value in test [3] is listed as “inhibitory capacity”.

Turning to RLAHSHRHRSHVALT [SEQ ID NO: 4], in test [1], the “% Inhibition of type I collagen mRNA induction (in vivo TGF-β1 biological activity)” value was determined as 51.30 ± 15.3% and the “inhibition of the biological activity of TGF-β1 in vivo (in words)” value is on record as “inhibitory capacity”. In test [2], the No. colonies was 18. The “inhibition of the biological activity of TGF-β1 in vitro (in words)” value in test [3] is reported as “inhibitory capacity”.

On to SGRRHLHRHHIFSLP [SEQ ID NO: 14], for which, in test [1], the “% Inhibition of type I collagen mRNA induction (in vivo TGF-β1 biological activity)” value came to 49.84 ± 24% and the “inhibition of the biological activity of TGF-β1 in vivo (in words)” value is “inhibitory capacity”. In test [2], this sequence gave a No. colonies of 2. Moreover, the “inhibition of the biological activity of TGF-β1 in vitro (in words)” value in test [3] is “inhibitory capacity”.

Take WHKYFLRRPLSVRTR [SEQ ID NO: 11]: in test [1], the “% Inhibition of type I collagen mRNA induction (in vivo TGF-β1 biological activity)” value is 39.34 ± 21.9% and the “inhibition of the biological activity of TGF-β1 in vivo (in words)” value is recorded as “inhibitory capacity”. In test [2], the No. colonies came out at 4. In addition, in test [3], the “inhibition of the biological activity of TGF-β1 in vitro (in words)” value was “inhibitory capacity”.
